Target: T1, ERα (Homo sapiens, UniProt P03372)
T1 construct: MCF-7 (ATCC; Cat. No.: HTB-22), a Luminal A breast cancer cell; culture medium EMEM; host or cells: MCF-7
T1 sequence (P03372 1-595): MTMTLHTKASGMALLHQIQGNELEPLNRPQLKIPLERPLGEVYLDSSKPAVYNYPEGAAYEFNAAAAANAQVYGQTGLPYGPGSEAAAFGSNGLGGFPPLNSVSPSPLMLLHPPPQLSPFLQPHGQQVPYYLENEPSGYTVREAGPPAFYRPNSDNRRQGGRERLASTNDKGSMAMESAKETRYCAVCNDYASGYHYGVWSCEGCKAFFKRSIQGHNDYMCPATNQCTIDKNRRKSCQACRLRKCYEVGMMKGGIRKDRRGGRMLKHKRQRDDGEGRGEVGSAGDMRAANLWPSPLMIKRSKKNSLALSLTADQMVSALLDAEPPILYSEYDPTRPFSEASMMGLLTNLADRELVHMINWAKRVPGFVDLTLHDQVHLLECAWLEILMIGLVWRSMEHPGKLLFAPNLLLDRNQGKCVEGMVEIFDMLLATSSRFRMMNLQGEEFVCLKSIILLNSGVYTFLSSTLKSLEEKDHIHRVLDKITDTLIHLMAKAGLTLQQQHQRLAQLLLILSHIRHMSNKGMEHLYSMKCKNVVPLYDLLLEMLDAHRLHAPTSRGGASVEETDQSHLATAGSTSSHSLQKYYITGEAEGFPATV
Assay: iELISA of ER degradation in MCF-7 cells (Effect Example 1)
Type: cell-based
Conditions: MCF-7 iELISA, processing time 4 hours, starting concentration 1 μM; for Dmax: MCF7; for DC50: read-out: DC50 (drug concentration corresponding to 50% protein degradation)
Description: 1. Cell Line • Breast cancer cell line and its culture medium: • MCF-7 (ATCC; Cat. No.: HTB-22), a Luminal A breast cancer cell; culture medium EMEM.
2. Reagents • Culture medium EMEM (Gibco, 1964507) • Fetal bovine serum (Gibco, 10091148) • Penicillin-streptomycin double antibody (Gibco, S110JV) • DPBS (Gibco, 14190-144) • CellTiter-Glo® assay kit (Promega, G7573) • Trypsin (0.25%) (Gibco, 25200-056) • DMSO (Sigma, D2650)
3. Instruments • Biosafety cabinet (AIRTECH, BSC-1300A II) • Automated cell counter (Life Technologies, countess II) • Multifunctional microplate reader (Biotek, H1FM) • Orbital shaker (Hangzhou Allsheng Instruments Co., Ltd., OS-100) • XLFIT 5.3 (Inforstack Shanghai Co., Ltd.)
For this test method, the following experiments were performed in a biosafety cabinet, with the specific steps as follows: • (1) On the first day, cells were inoculated in a 96-well plate, the previous culture medium was poured off, 5 mL of DPBS was added to wash the cells, and then DPBS was pipetted and discarded. 1 mL of trypsin (0.25%) was then added. The plate was digested in a 37° C., 5% CO2 cell incubator for about 2 to 5 minutes and then taken out. A new corresponding culture medium was added, and pipetted up and down to resuspend the cells evenly. The cells were then counted using an automated cell counter. • (2) Each cell was inoculated in columns 1 to 12 of a 96-well plate (Corning, Cat. No.: 356690) at a density of 30,000 cells per well in 100 μL of culture medium. The plate was then placed in a 37° C., 5% CO2 incubator for 24 hours. • (3) On the second day, the compound of the present disclosure was 4-fold serially diluted to 10 dose points starting at 1 μM. 10 μL of the serially diluted compound was pipetted and added to 100 μL of cells in columns 1 to 10, and 10 μL of the corresponding culture medium containing 0.33 v % DMSO was added to both columns 11 and 12. The plate was incubated in a 37° C., 5% CO2 incubator for 4 hours (Note: column 11 was used as a MIN well without compound and primary antibody but with secondary antibody; column 12 was used as a MAX well without compound but with primary antibody and secondary antibody). • (4) The culture medium was then removed. The cells were washed once with 100 µL of DPBS, and fixed with 100 μL of 1 v % formaldehyde (CST; Cat. No.: 12606) fixative at room temperature for 30 minutes. • (5) The fixative was removed. The cells were washed once with 100 μL of DPBS, and permeabilized with 100 μL of 80 v % pre-cooled methanol (Jiazu-chemical; Cat. No.: 67-56-1) at 4° C. for 15 minutes. • (6) Methanol was removed, and the cells were washed once with 100 μL of DPBS. The plate was added with 100 μL of primary antibody (1:5000, a volume ratio of primary antibody to BSA; manufacturer of primary antibody: Invitrogen, Cat. No.: MA5-14501), and incubated at 4° C. overnight. • (7) Primary antibody was removed, and the cells were washed three times with […] of DPBS. The plate was added with 100 μL of secondary antibody (1:2500, a volume ratio of secondary antibody to BSA; manufacturer of secondary antibody: Univ, Cat. No.: abs20002), and incubated at room temperature for 1 hour. • (8) Secondary antibody was removed, and the cells were washed three times with […] of DPBS. The plate was added with 100 μL of tetramethylbenzidine (TMB) (CST; Cat. No.: 7004), and incubated at room temperature for 1 hour. • (9) The plate was added with 100 μL of stop buffer (CST; Cat. No.: 7002), and incubated at room temperature for 10 minutes. The OD450 signal value was detected with a multifunctional microplate reader, and finally, the degradation effect of the compound of the present disclosure on ER was plotted by XLFIT software, and the DC50 value of the compound of the present disclosure (drug concentration corresponding to 50% protein degradation) was calculated; Dmax=[(the highest level of ERα−the lowest level of ERα)/(the highest level of ERα)].

Dmax [%]	DC50 [nM]	SMILES
48		C[C@@H]1CN(CCOc2ccc(Oc3c(-c4ccc(S(C)(=O)=O)cc4)ccc4cc(O)ccc34)cc2)[C@@H](C)CN1CCOCC(=O)N1CCN(c2ccc3c(c2)CN(C2CCC(=O)NC2=O)C3=O)CC1 (stereo partly drawn) [Compound D9, 3-(5-(4-(2-(2-((2R,5S)-4-(2-(4-((6-hydroxy-2-(4-(methylsulfonyl)phenyl)naphthalen-1-yl)oxy)phenoxy)ethyl)-2,5-dimethylpiperazin-1-yl)ethoxy)acetyl)piperazin-1-yl)-1-oxoisoindolin-2-yl)piperidine-2,6-dione]
47		CS(=O)(=O)c1ccc(-c2ccc3cc(O)ccc3c2Oc2ccc(OCCOCCOCCOCCN3CCN(c4ccc5c(c4)C(=O)N(C4CCC(=O)NC4=O)C5=O)CC3)cc2)cc1 (centres unmarked) [Compound D19]
69	7.5	CS(=O)(=O)c1ccc(-c2ccc3cc(O)ccc3c2Oc2ccc(OCCOCCOCCOCCN3CCN(c4ccc5c(c4)C(=O)N(C4CCC(=O)NC4=O)C5)CC3)cc2)cc1 (centres unmarked) [Compound D21]
54	4.9	CS(=O)(=O)c1ccc(-c2ccc3cc(O)ccc3c2Oc2ccc(OCCOCCOCCN3CCN(c4ccc5c(c4)C(=O)N(C4CCC(=O)NC4=O)C5)CC3)cc2)cc1 (centres unmarked) [Compound D22, 3-(6-(4-(2-(2-(2-(4-((6-hydroxy-2-(4-(methylsulfonyl)phenyl)naphthalen-1-yl)oxy)phenoxy)ethoxy)ethoxy)ethyl)piperazin-1-yl)-1-oxoisoindolin-2-yl)piperidine-2,6-dione]
35		CS(=O)(=O)c1ccc(-c2ccc3cc(O)ccc3c2Oc2ccc(OCCOCCOCCN3CCN(c4ccc5c(c4)CN(C4CCC(=O)NC4=O)C5=O)CC3)cc2)cc1 (centres unmarked) [Compound D30]
35		CCN(CCCCCN(C)CC(=O)N1CCN(c2ccc3c(c2)C(=O)N(C2CCC(=O)NC2=O)C3=O)CC1)CCOc1ccc(Oc2c(-c3ccc(S(C)(=O)=O)cc3)ccc3cc(O)ccc23)cc1 (centres unmarked) [Compound D31, 2-(2,6-dioxopiperidin-3-yl)-5-(4-(N-(5-(ethyl(2-(4-((6-hydroxy-2-(4-(methylsulfonyl))phenyl)naphthalen-1-yl)oxy)phenoxy)ethyl)aminopentyl)-N-methylglycyl)piperazin-1-yl)isoindoline-1,3-dione]
32		CS(=O)(=O)c1ccc(-c2ccc3cc(O)ccc3c2Oc2ccc(OCCOCCOCCOCCOc3ccc4c(c3)C(=O)N(C3CCC(=O)NC3=O)C4)cc2)cc1 (centres unmarked) [Compound D35, 3-(6-(2-(2-(2-(2-(4-((6-hydroxy-2-(4-(methylsulfonyl)phenyl)naphthalen-1-yl)oxy)phenoxy)ethoxy)ethoxy)ethoxy)ethoxy)-1-oxoisoindolin-2-yl)piperidine-2,6-dione]

The remaining lines, values behind:

SMILES	Dmax [%]	DC50 [nM]
CCN(CCOc1ccc(Oc2c(-c3ccc(S(C)(=O)=O)cc3)ccc3cc(O)ccc23)cc1)CC(=O)N1CCN(c2ccc3c(c2)C(=O)N(C2CCC(=O)NC2=O)C3=O)CC1 (centres unmarked) [Compound D8, 2-(2,6-dioxopiperidin-3-yl)-5-(4-(N-ethyl-N-(2-(4-((6-hydroxy-2-(4-(methylsulfonyl)phenyl)naphthalen-1-yl)oxy)phenoxy)ethyl)glycyl)piperazin-1-yl)isoindoline-1,3-dione]	43	
CS(=O)(=O)c1ccc(-c2ccc3cc(O)ccc3c2Oc2ccc(N3CCN(CCCCCOCC(=O)N4CCN(c5ccc6c(c5)CN(C5CCC(=O)NC5=O)C6=O)CC4)CC3)cc2)cc1 (centres unmarked) [Compound D11, 3-(5-(4-(2-((5-(4-(4-((6-hydroxy-2-(4-(methylsulfonyl)phenyl)naphthalen-1-yl)oxy)phenyl)piperazin-1-yl)pentyl)oxy)acetyl)piperazin-1-yl)-1-oxoisoindolin-2-yl)piperidine-2,6-dione]	40	
C[C@@H]1CN(CCOCC(=O)N2CCN(c3ccc4c(c3)C(=O)N(C3CCC(=O)NC3=O)C4=O)CC2)[C@@H](C)CN1CCOc1ccc(Oc2c(-c3ccc(S(C)(=O)=O)cc3)ccc3cc(O)ccc23)cc1 (stereo partly drawn) [Compound D15, 2-(2,6-dioxopiperidin-3-yl)-5-(4-(2-(2-((2S,5R)-4-(2-(4-((6-hydroxy-2-(4-(methylsulfonyl)phenyl)naphthalen-1-yl)oxy)phenoxy)ethyl)-2,5-dimethylpiperazin-1-yl)ethoxy)acetyl)piperazin-1-yl)isoindoline-1,3-dione]	60	7.6
CCN(CCOCCOCCN1CCN(c2ccc3c(c2)C(=O)N(C2CCC(=O)NC2=O)C3=O)CC1)CCOc1ccc(Oc2c(-c3ccc(S(C)(=O)=O)cc3)ccc3cc(O)ccc23)cc1 (centres unmarked) [Compound D28, 2-(2,6-dioxopiperidin-3-yl)-5-(4-(2-(2-(2-(ethyl(2-(4-((6-hydroxy-2-(4-(methylsulfonyl)phenyl)naphthalen-1-yl)oxy)phenoxy)ethyl)amino)ethoxy)ethoxy)ethyl)piperazin-1-yl)isoindoline-1,3-dione]	34	
CCN(CCOc1ccc(Oc2c(-c3ccc(S(C)(=O)=O)cc3)ccc3cc(O)ccc23)cc1)C(=O)c1ccc(CCC2CCN(C3CCN(c4ccc5c(c4)C(=O)N(C4CCC(=O)NC4=O)C5=O)CC3)CC2)cc1 (centres unmarked) [Compound D34, 4-(2-(1′-(2-(2,6-dioxopiperidin-3-yl)-1,3-dioxoisoindolin-5-yl)-[1,4′-bipiperidin]-4-yl)ethyl)-N-ethyl-N-(2-(4-((6-hydroxy-2-(4-(methylsulfonyl)phenyl)naphthalen-1-yl)oxy)phenoxy)ethyl)benzamide]	45	
CS(=O)(=O)c1ccc(-c2ccc3cc(O)ccc3c2Oc2ccc(OCCCCN3CCN(c4ccc5c(c4)CN(C4CCC(=O)NC4=O)C5=O)CC3)cc2)cc1 (centres unmarked) [Compound D59, 3-(5-(4-(4-(4-((6-hydroxy-2-(4-(methylsulfonyl)phenyl)naphthalen-1-yl)oxy)phenoxy)butyl)piperazin-1-yl)-1-oxoisoindolin-2-yl)piperidine-2,6-dione]	67	0.5
